Target: Factor D (Homo sapiens (Human), UniProt P00746)
Assay: Factor D esterolytic assay (Z-Lys-SBzl substrate, DTNB, 405 nm)
Assay type: biochemical
Conditions: Z-Lys-SBzl 1.29 mM, pH 7.5, 10% DMSO, tested a minimum of three times, read-out: Measured Ki (IC50) Value for Compounds: IC50
Outline: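 Thioester hydrolysis (Z-Lys-SBzl, 1.29 mM) by human Factor D ([…]) detected through DTNB color at 405 nm over 600 sec, minus 690 nm background. Buffer: 100 mM HEPES pH 7.5, 500 mM NaCl, 10% DMSO; optional room-temperature preincubation before substrate. IC50 derived from percent rate inhibition; at least three runs.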

Chain of Factor D (P00746 26-253): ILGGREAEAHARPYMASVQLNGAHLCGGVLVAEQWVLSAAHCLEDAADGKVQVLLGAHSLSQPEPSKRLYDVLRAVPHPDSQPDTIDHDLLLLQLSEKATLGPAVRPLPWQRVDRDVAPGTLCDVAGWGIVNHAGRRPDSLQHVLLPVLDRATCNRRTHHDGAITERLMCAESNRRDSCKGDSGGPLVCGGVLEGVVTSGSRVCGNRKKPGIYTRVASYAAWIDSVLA

SMILES | IC50 [nM]
NCc1cccc(-c2nc(C(=O)Nc3ccccc3CC(=O)O)c3cccn3n2)c1 [Compound 1h, 2-(2-(2-(3-(aminomethyl)phenyl)pyrrolo[2,1-f][1,2,4]triazine-4-carboxamido)phenyl)acetic acid] | < 1000
NCc1cc(-c2cc(COc3ccccc3CC(=O)O)cc3cc(CCO)oc23)ccn1 [Compound 185c, 2-(2-((7-(2-(aminomethyl)pyridin-4-yl)-2-(2-hydroxyethyl)benzofuran-5-yl)methoxy)phenyl)acetic acid] | < 1000
NCc1cccc(-c2cc(COc3ccccc3CC(=O)O)c3nccn3c2)c1 [Compound 71e, 2-(2-((6-(3-(aminomethyl)phenyl)imidazo[1,2-a]pyridin-8-yl)methoxy)phenyl)acetic acid] | < 1000
NCc1cccc(-c2nc3c(c(C(=O)Nc4ccccc4CC(=O)O)n2)CCC3)c1 [Compound 2f, 2-(2-(2-(3-(aminomethyl)phenyl)-6,7-dihydro-5H-cyclopenta[d]pyrimidine-4-carboxamido)phenyl)acetic acid] | < 1000
C[C@H](N)c1cccc(-c2cc(COc3ccccc3CC(=O)O)cc3ccoc23)c1 [Compound 72c, (S)-2-(2-((7-(3-(1-aminoethyl)phenyl)benzofuran-5-yl)methoxy)phenyl)acetic acid] | < 1000
NCc1cccc(-c2cc(COc3ccccc3CC(=O)O)cc3ccoc23)c1F [Compound 56c, 2-(2-((7-(3-(aminomethyl)-2-fluorophenyl)benzofuran-5-yl)methoxy)phenyl)acetic acid] | < 1000
CN1CCC(N(C)Cc2cc3cc(COc4ccccc4CC(=O)O)cc(-c4cccc(CN)c4)c3o2)CC1 [Compound 210c, 2-(2-((7-(3-(aminomethyl)phenyl)-2-((methyl(1-methylpiperidin-4-yl)amino)methyl)benzofuran-5-yl)methoxy)phenyl)acetic acid] | < 1000
CCCc1cc2cc(COc3ccccc3CC(=O)O)cc(-c3cccc(CN)c3F)c2o1 [Compound 188b, 2-(2-((7-(3-(aminomethyl)-2-fluorophenyl)-2-propylbenzofuran-5-yl)methoxy)phenyl)acetic acid] | < 1000
CCOC(=O)Cc1ccccc1NC(=O)c1cc(-c2cccc(CN)c2)c2cn(CC3CC3)nc2c1 [Compound 11a, ethyl 2-(2-(4-(3-(aminomethyl)phenyl)-2-(cyclopropylmethyl)-2H-indazole-6-carboxamido)phenyl)acetate] | > 10000

Results, then the compound that gave them:

IC50 [nM] | SMILES
< 1000 | NCc1cccc(-c2cc(COc3cc(-c4ccco4)ccc3CC(=O)O)cc3ccoc23)c1 [Compound 318c, 2-(2-((7-(3-(aminomethyl)phenyl)benzofuran-5-yl)methoxy)-4-(furan-2-yl)phenyl)acetic acid]
< 1000 | NCc1cccc(-c2cc(COc3c(CC(=O)O)cccc3-c3ccoc3)cc3ccoc23)c1 [Compound 468h, 2-(2-((7-(3-(aminomethyl)phenyl)benzofuran-5-yl)methoxy)-3-(furan-3-yl)phenyl)acetic acid]
< 1000 | NCc1cc(-c2cc(COc3cc(F)ccc3CC(=O)O)c(F)c3ccoc23)ccn1 [Compound 503c, 2-(2-((7-(2-(aminomethyl)pyridin-4-yl)-4-fluorobenzofuran-5-yl)methoxy)-4-fluorophenyl)acetic acid]
< 1000 | Cc1ccc(CC(=O)O)c(OCc2cc(-c3cccc(CN)c3F)c3occ(C(F)(F)F)c3c2)c1 [Compound 349b, 2-(2-((7-(3-(aminomethyl)-2-fluorophenyl)-3-(trifluoromethyl)benzofuran-5-yl)methoxy)-4-methylphenyl)acetic acid]

— US11370774B2, “Substituted benzofuran, benzopyrrole, benzothiophene, and structurally related complement inhibitors” (BioCryst Pharmaceuticals, Inc., priority 2018, dated 2022)
